How the values were obtained:
[1] = test system: genotype 1a H-77 replicon; test: HCV-1a replicon potency in RLuc-1 cells, bioluminescence; assay type: cell-based; conditions: for HCV-1a Replicon Selectivity Index: CC50/EC50, genotype 1a replicon; for EC50: Hepatitis C virus, 72 h, read-out: HCV-1a Replicon EC50 (μM)
[2] = Cytotoxicity in HCV-1a replicon cells, Promega CellTiter-Glo cell viability assay
in vitro = conditions: human
HIV-2 strain (ROD) = test: Inhibition of replication of HIV-2 (ROD strain) in MT-4 cells, MTT assay; assay type: cell-based; conditions: Human immunodeficiency virus 2, MT4, 120 h; MT-4 cells, MTT assay, five days after infection, 50% protection from cytopathic effect; read-out: EC50 (μM) HIV-2 (ROD)
HIV-1 strain IIIB = test: Inhibition of replication of HIV-1 (IIIB strain) in MT-4 cells, MTT assay; assay type: cell-based; conditions: Human immunodeficiency virus 1, IIIB, MT4, 120 h; MT-4 cells, MTT assay, five days after infection, 50% protection from cytopathic effect; read-out: EC50 (μM) HIV-1 (IIIB)

SMILES: Cn1c(-c2ccc(F)cc2)nc2c(N3CCN(C(=O)COc4ccc(Cl)cc4)CC3)nc(N)nc21 [Example 430, 1-(4-(2-amino-8-(4-fluorophenyl)-9-methyl-9H-purin-6-yl)piperazin-1-yl)-2-(4-chlorophenoxy)ethanone]
- HCV-1a Replicon Selectivity Index [1]: 54.0
- EC50 [1]: 0.3 µM
- CC50 at 72 h [2]: 15.1 µM

SMILES: CSc1nc(N)nc2sc(-c3ccc(F)cc3)nc12 [Example 16, 2-(4-fluorophenyl)-7-(methylthio)thiazolo[5,4-d]pyrimidin-5-amine]
- CC50 (in vitro): 82.1 µM
- EC50 (HIV-2 strain (ROD)): > 82.1 µM
- EC50 (HIV-1 strain IIIB): > 233 µM

SMILES: Cc1cccc(NC(=O)N2CCN(c3nc(N)nc4sc(-c5ccccc5)cc34)CC2)c1 [Example 330, 4-(2-amino-6-phenylthieno[2,3-d]pyrimidin-4-yl)-N-m-tolylpiperazine-1-carboxamide]
- HCV-1a Replicon Selectivity Index [1]: 6.0
- EC50 [1]: 7.2 µM
- CC50 at 72 h [2]: 43.5 µM

SMILES: Cc1cccc(NC(=O)N2CCN(c3nc(N)nc4oc(CCc5ccc(F)cc5)nc34)CC2)c1 [Example 196, 5-amino-2-[2-(4-fluorophenyl)ethyl]-7-(4-m-tolylcarbamoylpiperazin-1-yl)-oxazolo[5,4-d]pyrimidine]
- HCV-1a Replicon Selectivity Index [1]: 1.6
- EC50 [1]: 15.6 µM
- CC50 at 72 h [2]: 24.5 µM

SMILES: COc1cccc(C(=O)N2CCN(c3nc(N)nc4[nH]c(-c5ccc(F)cc5)nc34)CC2)c1 [Example 402, (4-(2-amino-8-(4-fluorophenyl)-9H-purin-6-yl)piperazin-1-yl)(3-methoxyphenyl)methanone]
- EC50 [1]: > 44.4 µM
- CC50 at 72 h [2]: > 44.4 µM

SMILES: Nc1nc(N2CCN(C(=O)COc3ccc(Cl)cc3)CC2)c2nc(-c3cccnc3)sc2n1 [Example 121a, 5-amino-7-[4-(4-chlorophenoxyacetyl)piperazin-1-yl]-2-(pyridine-3-yl)thiazolo[5,4-d]pyrimidine]
- HCV-1a Replicon Selectivity Index [1]: >888
- EC50 [1]: 0.05 µM
- CC50 at 72 h [2]: > 44.4 µM

SMILES: Nc1nc(N2CCN(C(=O)Cc3cccs3)CC2)c2nc(-c3ccc(F)cc3)[nH]c2n1 [Example 403, 1-(4-(2-amino-8-(4-fluorophenyl)-9H-purin-6-yl)piperazin-1-yl)-2-(thiophen-2-yl)ethanone]
- HCV-1a Replicon Selectivity Index [1]: 0.8
- EC50 [1]: 11.3 µM
- CC50 at 72 h [2]: 9.6 µM

SMILES: Nc1nc(N2CCN(CC(=O)N3CCOCC3)CC2)c2nc(-c3ccc(F)cc3)sc2n1 [Example 38, 2-(4-(5-amino-2-(4-fluorophenyl)thiazolo[5,4-d]pyrimidin-7-yl)piperazin-1-yl)-1-morpholinoethanone]
- CC50 (in vitro): 201 µM
- EC50 (HIV-2 strain (ROD)): > 201 µM
- EC50 (HIV-1 strain IIIB): > 251 µM

SMILES: Nc1nc(N2CCN(C(=O)COc3ccc(Cl)cc3)CC2)c2nc(-c3ccc(C(F)(F)F)cc3)[nH]c2n1 [Example 394, 1-(4-(2-amino-8-(4-(trifluoromethyl)phenyl)-9H-purin-6-yl)piperazin-1-yl)-2-(4-chlorophenoxy)ethanone]
- HCV-1a Replicon Selectivity Index [1]: 1.2
- EC50 [1]: 9 µM
- CC50 at 72 h [2]: 10.6 µM

SMILES: CCOc1nc(N)nc2sc(-c3ccc(F)cc3)nc12 [Example 30, 7-ethoxy-2-(4-fluorophenyl)thiazolo[5,4-d]pyrimidin-5-amine]
- CC50 (in vitro): > 373 µM
- EC50 (HIV-2 strain (ROD)): > 373 µM
- EC50 (HIV-1 strain IIIB): > 373 µM

SMILES: CC(c1ccc(Cl)cc1)c1nc2c(N3CCN(C(=O)COc4ccc(Cl)cc4)CC3)nc(N)nc2s1 (centres unmarked) [Example 125, 5-amino-7-[4-(4-chlorophenoxyacetyl)piperazin-1-yl]-2-(1-(4-chlorophenyl)ethyl)thiazolo[5,4-d]pyrimidine]
- HCV-1a Replicon Selectivity Index [1]: 1.1
- EC50 [1]: 22.6 µM
- CC50 at 72 h [2]: 24.4 µM

SMILES: Cc1cccc(NC(=O)N2CCN(c3nc(N)nc4sc(-c5ccc(F)cc5)nc34)CC2)c1 [Example 43, 4-(5-amino-2-(4-fluorophenyl)thiazolo[5,4-d]pyrimidin-7-yl)-N-m-tolylpiperazine-1-carboxamide]
- CC50 (in vitro): 15.8 µM
- EC50 (HIV-2 strain (ROD)): 0.39 µM
- EC50 (HIV-1 strain IIIB): 0.4 µM

SMILES: Nc1nc(N2CCN(C(=O)COc3ccc(Cl)cc3)CC2)c2nc(-c3ccc(Cl)c(Cl)c3)sc2n1 [Example 116, 5-amino-7-[4-(4-chlorophenoxyacetyl)piperazin-1-yl]-2-(3,4-dichlorophenyl)thiazolo[5,4-d]pyrimidine]
- HCV-1a Replicon Selectivity Index [1]: 0.8
- EC50 [1]: > 44.4 µM
- CC50 at 72 h [2]: 37.2 µM

SMILES: Nc1nc(N2CCNCC2)c2nc(-c3ccc(F)cc3)sc2n1 [Example 25, 2-(4-fluorophenyl)-7-(piperazin-1-yl)-thiazolo[5,4-d]pyrimidin-5-amine]
- CC50 (in vitro): 1.8 µM
- EC50 (HIV-2 strain (ROD)): > 1.8 µM
- EC50 (HIV-1 strain IIIB): > 1.8 µM

SMILES: Nc1nc(N2CCN(c3nccs3)CC2)c2nc(-c3ccc(F)cc3)sc2n1 [Example 36, 2-(4-fluorophenyl)-7-(4-(thiazol-2-yl)piperazin-1-yl)thiazolo[5,4-d]pyrimidin-5-amine]
- CC50 (in vitro): 36.4 µM
- EC50 (HIV-2 strain (ROD)): > 36.4 µM
- EC50 (HIV-1 strain IIIB): > 29 µM

SMILES: Cc1ccc(NC(=O)N2CCN(c3nc(N)nc4sc(-c5ccc(F)cc5)nc34)CC2)cc1 [Example 42, 4-(5-amino-2-(4-fluorophenyl)-thiazolo[5,4-d]pyrimidin-7-yl)-N-p-tolylpiperazine-1-carboxamide]
- CC50 (in vitro): 28.2 µM
- EC50 (HIV-2 strain (ROD)): 0.98 µM
- EC50 (HIV-1 strain IIIB): 1.35 µM

SMILES: Nc1nc(N2CCOCC2)c2nc(-c3ccc(F)cc3)sc2n1 [Example 33, 2-(4-fluorophenyl)-7-morpholino-thiazolo[5,4-d]pyrimidin-5-amine]
- CC50 (in vitro): 235 µM
- EC50 (HIV-2 strain (ROD)): 141 µM
- EC50 (HIV-1 strain IIIB): > 207 µM

SMILES: Nc1nc(N2CCN(C(=O)OCc3ccccc3)CC2)c2nc(-c3ccc(F)cc3)sc2n1 [Example 40, benzyl-4-(5-amino-2-(4-fluorophenyl)thiazolo[5,4-d]pyrimidin-7-yl)piperazine-1-carboxylate]
- CC50 (in vitro): 241 µM
- EC50 (HIV-2 strain (ROD)): > 241 µM
- EC50 (HIV-1 strain IIIB): > 241 µM

SMILES: COc1ccc(OCC(=O)N2CCN(c3nc(N)nc4sc(CCc5ccc(F)cc5)nc34)CC2)cc1 [Example 50, 1-(4-(5-amino-2-(4-fluorophenethyl)thiazolo[5,4-d]pyrimidin-7-yl)piperazin-1-yl)-2-(4-methoxyphenoxy)ethanone]
- CC50 (in vitro): 212 µM
- EC50 (HIV-2 strain (ROD)): > 212 µM
- EC50 (HIV-1 strain IIIB): 3.5 µM

SMILES: Nc1nc(N2CCN(Cc3ccccc3)CC2)c2nc(-c3ccc(F)cc3)sc2n1 [Example 39, 7-(4-benzylpiperazin-1-yl)-2-(4-fluorophenyl)thiazolo[5,4-d]pyrimidin-5-amine]
- CC50 (in vitro): 45.2 µM
- EC50 (HIV-2 strain (ROD)): > 45.2 µM
- EC50 (HIV-1 strain IIIB): > 45.2 µM

SMILES: COCCOc1nc(N)nc2sc(-c3ccc(F)cc3)nc12 [Example 29, 2-(4-fluorophenyl)-7-(2-methoxyethoxy)-thiazolo[5,4-d]pyrimidin-5-amine]
- CC50 (in vitro): > 390 µM
- EC50 (HIV-2 strain (ROD)): 220 µM
- EC50 (HIV-1 strain IIIB): > 390 µM

SMILES: CCCCCN1CCN(c2nc(N)nc3sc(-c4ccc(F)cc4)nc23)CC1 [Example 37, 2-(4-fluorophenyl)-7-(4-pentylpiperazin-1-yl)thiazolo[5,4-d]pyrimidin-5-amine]
- CC50 (in vitro): > 312 µM
- EC50 (HIV-2 strain (ROD)): 212 µM
- EC50 (HIV-1 strain IIIB): > 312 µM

SMILES: Cc1cccc(NC(=O)N2CCN(c3nc(N)nc4sc(C(C)c5ccc(F)cc5)nc34)CC2)c1 (centres unmarked) [Example 68, 4-(5-amino-2-(1-(4-fluorophenyl)ethyl)thiazolo[5,4-d]pyrimidin-7-yl)-N-m-tolylpiperazine-1-carboxamide]
- CC50 (in vitro): 30.3 µM
- EC50 (HIV-2 strain (ROD)): > 30.3 µM
- EC50 (HIV-1 strain IIIB): > 30.3 µM

SMILES: Nc1nc(N2CCN(S(=O)(=O)c3ccccc3)CC2)c2nc(-c3ccc(F)cc3)sc2n1 [Example 41, 2-(4-fluorophenyl)-7-(4-(phenylsulfonyl)piperazin-1-yl)thiazolo[5,4-d]pyrimidin-5-amine]
- CC50 (in vitro): 237 µM
- EC50 (HIV-2 strain (ROD)): > 237 µM
- EC50 (HIV-1 strain IIIB): > 237 µM

SMILES: Nc1nc(SCc2ccccc2)c2nc(-c3ccc(F)cc3)sc2n1 [Example 28, 7-(benzylthio)-2-(4-fluorophenyl)thiazolo[5,4-d]pyrimidin-5-amine]
- CC50 (in vitro): > 339 µM
- EC50 (HIV-2 strain (ROD)): > 339 µM
- EC50 (HIV-1 strain IIIB): > 339 µM

SMILES: Cc1cccc(N2CCN(c3nc(N)nc4sc(-c5ccc(F)cc5)nc34)CC2)c1 [Example 35, 2-(4-fluorophenyl)-7-(4-m-tolylpiperazin-1-yl)-thiazolo[5,4-d]pyrimidin-5-amine]
- CC50 (in vitro): 234 µM
- EC50 (HIV-2 strain (ROD)): > 38.5 µM
- EC50 (HIV-1 strain IIIB): > 234 µM

SMILES: Cc1cccc(NC(=O)N2CCN(c3nc(N)nc4sc(Cc5ccc(F)cc5)nc34)CC2)c1 [Example 44, 4-(5-amino-2-(4-fluorobenzyl)thiazolo[5,4-d]pyrimidin-7-yl)-N-m-tolylpiperazine-1-carboxamide]
- CC50 (in vitro): 10.1 µM
- EC50 (HIV-2 strain (ROD)): 0.85 µM
- EC50 (HIV-1 strain IIIB): 4.02 µM

SMILES: Nc1nc(N2CCN(C(=O)COc3ccc(Cl)cc3)CC2)c2nc(-c3ccc(F)cc3)oc2n1 [Example 169, 1-(4-(5-amino-2-(4-fluorophenyl)oxazolo[5,4-d]pyrimidin-7-yl)piperazin-1-yl)-2-(4-chlorophenoxy)ethanone]
- CC50 (in vitro): > 50 µM
- EC50 (HIV-2 strain (ROD)): > 50 µM
- EC50 (HIV-1 strain IIIB): > 50 µM

SMILES: CCOc1nc(N)nc2sc(Cc3ccc(F)cc3)nc12 [Example 31, 7-ethoxy-2-(4-fluorobenzyl)thiazolo[5,4-d]pyrimidin-5-amine]
- CC50 (in vitro): > 411 µM
- EC50 (HIV-2 strain (ROD)): > 411 µM
- EC50 (HIV-1 strain IIIB): > 411 µM

SMILES: Nc1nc(N2CCOCC2)c2cc(-c3ccc(F)cc3)sc2n1 [Example 364, 6-(4-fluorophenyl)-4-morpholinothieno[2,3-d]pyrimidin-2-amine]
- CC50 (in vitro): 239 µM
- EC50 (HIV-2 strain (ROD)): > 239 µM
- EC50 (HIV-1 strain IIIB): > 239 µM

SMILES: Nc1nc(N2CCOCC2)c2nc(Cc3ccc(F)cc3)sc2n1 [Example 34, 2-(4-fluorobenzyl)-7-morpholino-thiazolo[5,4-d]pyrimidin-5-amine]
- CC50 (in vitro): > 362 µM
- EC50 (HIV-2 strain (ROD)): > 362 µM
- EC50 (HIV-1 strain IIIB): > 362 µM
